Data reported in ChEMBL document CHEMBL6083251, “"Pseudosubstrate Envelope"/Free Energy Perturbation-Guided Design and Mechanistic Investigations of Benzothiazole HIV Capsid Modulators with High Ligand Efficiency” (J Med Chem, 2024).
Activity calls are given as the source filed them. The rule behind the calls is not given here.

Tests used:
[1] = Acute toxicity in male Kunming mouse assessed as sedation at 1000 mg/kg, IG administered via gavage; type: organism-based; settings: in vivo, po
[2] = target: Structural capsid protein (Human immunodeficiency virus 1, UniProt Q76129); assay: Binding affinity to hexameric HIV-1 NL4.3 capsid protein assessed as dissociation constant by SPR assay
Sequence of Structural capsid protein (Q76129 whole entry): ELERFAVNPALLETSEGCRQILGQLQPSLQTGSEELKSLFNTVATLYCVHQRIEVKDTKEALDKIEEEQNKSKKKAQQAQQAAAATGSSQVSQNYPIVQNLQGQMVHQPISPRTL

[3] = Subacute toxicity in male Kunming mouse assessed as tremor at 50 mg/kg, po administered every other day for 14 days; type: organism-based; settings: in vivo, 336 h, time 14 day
[4] = Acute toxicity in female Kunming mouse assessed as convulsion at 1000 mg/kg, IG administered via gavage; type: organism-based; settings: in vivo, po
[5] = Half life in male Sprague-Dawley rat at 2 mg/kg, iv measured upto 24 hrs by LC-MS/MS analysis; type: ADME, organism-based; settings: in vivo
[6] = Subacute toxicity in male Kunming mouse assessed as body jerks at 50 mg/kg, po administered every other day for 14 days; type: organism-based; settings: in vivo, 336 h, time 14 day
[7] = Subacute toxicity in male Kunming mouse assessed as scattered lymphocyte infiltration in heart at 50 mg/kg, po administered every other day for 14 days by H and E staining based analysis; type: organism-based; settings: in vivo, 336 h, time 14 day
[8] = Subacute toxicity in male Kunming mouse assessed as pathological damage in lungs at 50 mg/kg, po administered every other day for 14 days by H and E staining based analysis; type: organism-based; settings: in vivo, 336 h, time 14 day
[9] = Acute toxicity in female Kunming mouse assessed as body weight gain at 1000 mg/kg, IG administered via gavage; type: organism-based; settings: in vivo, po
[10] = AUC(0 to infinity) in male Sprague-Dawley rat at 10 mg/kg, sc measured upto 24 hrs by LC-MS/MS analysis; type: ADME, organism-based; settings: in vivo
[11] = AUC(0 to infinity) in male Sprague-Dawley rat at 2 mg/kg, iv measured upto 24 hrs by LC-MS/MS analysis; type: ADME, organism-based; settings: in vivo
[12] = Metabolic stability in human liver microsomes assessed as half life at 1 uM incubated for 60 mins by LC-MS/MS analysis; type: ADME, Microsome
[13] = Acute toxicity in male Kunming mouse assessed as death at 1000 mg/kg, IG administered via gavage; type: organism-based; settings: in vivo, po
[14] = Subacute toxicity in male Kunming mouse assessed as hypoactivity at 50 mg/kg, po administered every other day for 14 days; type: organism-based; settings: in vivo, 336 h, time 14 day
[15] = system: Human immunodeficiency virus 1; assay: Antiviral activity against pseudotyped HIV-1 expressing luciferase-reporter transfected in HEK293T cells assessed as increase in p24 level in progeny virions by ELISA analysis; type: functional, organism-based
[16] = target: Structural capsid protein (Human immunodeficiency virus 1) (UniProt Q76129); assay: Binding affinity to HIV-1 hexameric capsid protein assessed as reduction in CPSF6 binding to capsid protein by competition assay based SPR analysis; settings: filed as modulator
Sequence of Structural capsid protein (Human immunodeficiency virus 1) (Q76129 as listed by the source): as the sequence (Q76129 whole entry) above

Structure (SMILES): CN(C(=O)[C@H](Cc1cc(F)cc(F)c1)NC(=O)Cc1c[nH]c2ccc(O)cc12)c1ccc2scnc2c1
- Activity [1]: Non-toxic
- Kd [2]: 0.0246 µM
- Activity [3]: Non-toxic
- Activity [4]: Non-toxic
- half-life [5]: 11.9 min
- Activity [6]: Non-toxic
- Activity [7]: Non-toxic
- Activity [8]: Non-toxic
- Activity [9]: Non-toxic
- AUC(0-inf) [10]: 33.6 ng·h/mL
- AUC(0-inf) [11]: 7.77 ng·h/mL
- half-life at 1 µM [12]: 91.3 min
- Activity [13]: Non-toxic
- Activity [14]: Non-toxic
- Activity [15]: Active
- Activity [16]: Active
